Publication PMC10776880 (EXCLI Journal, 2023)

Biological target: T1, ABCG2 (breast cancer resistance protein, BCRP) (Homo sapiens, UniProt Q9UNQ0)
T1 sequence (Q9UNQ0 1-655): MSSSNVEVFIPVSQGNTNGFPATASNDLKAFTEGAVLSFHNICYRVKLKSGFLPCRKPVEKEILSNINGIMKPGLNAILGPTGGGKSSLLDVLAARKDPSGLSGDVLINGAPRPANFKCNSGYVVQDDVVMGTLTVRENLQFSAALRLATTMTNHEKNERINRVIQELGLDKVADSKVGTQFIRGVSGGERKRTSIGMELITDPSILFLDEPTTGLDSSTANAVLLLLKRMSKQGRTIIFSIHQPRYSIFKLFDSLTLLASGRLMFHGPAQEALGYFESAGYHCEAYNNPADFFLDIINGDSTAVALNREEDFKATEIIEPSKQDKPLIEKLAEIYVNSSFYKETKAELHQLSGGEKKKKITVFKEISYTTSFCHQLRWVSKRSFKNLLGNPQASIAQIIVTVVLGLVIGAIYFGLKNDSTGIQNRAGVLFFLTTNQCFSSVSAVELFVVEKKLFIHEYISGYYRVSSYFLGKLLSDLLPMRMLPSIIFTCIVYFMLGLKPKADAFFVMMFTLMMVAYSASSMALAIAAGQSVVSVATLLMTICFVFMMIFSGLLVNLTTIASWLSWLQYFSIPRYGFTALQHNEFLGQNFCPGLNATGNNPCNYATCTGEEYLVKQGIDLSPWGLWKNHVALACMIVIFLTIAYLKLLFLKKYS
Assay: Hoechst […] efflux inhibition by flow cytometry in HEK293-ABCG2 cells; 5D3 conformational antibody shift; kinetics with mitoxantrone
Assay type: cell-based

Cc1cccc(C)c1OCC(=O)N[C@@H](Cc1ccccc1)[C@@H](O)C[C@H](Cc1ccccc1)NC(=O)[C@H](C(C)C)N1CCCNC1=O [LPV, lopinavir]
IC50: 23.4 µM
